Assay results taken from patent publication US20240325381A1 (GUANGZHOU INSTITUTES OF BIOMEDICINE AND HEALTH, CHINESE …, priority 2021, published 2024).

Assays:
Format in all cases: cell-based
[1] = system: Mito-GFP-labeled neural precursor cells; assay: Clearance of mitochondria by flunarizine in mito-GFP-labeled neural precursor cells (confocal microscopy); conditions: for mitochondrial morphology in neural precursor cells: 3 days
Experimental: Mito-GFP-labeled neural precursor cells were plated on a 6-well plate, and the surface coverage of the neural precursor cells on the 6-well plate was 80%. […] Then, the cells were detected with a confocal microscopy and the clearance efficiency of the mitochondrial was observed.
The mito-GFP-labeled neural precursor cells were plated on a 6-well plate, and the surface coverage of the neural precursor cells on the 6-well plate was 80%. […] Then, the results were detected with a confocal microscope and the efficiency of the mitochondrial clearance was observed.

[2] = system: Mito-GFP-labeled neural precursor cells; assay: Mitochondrial clearance after knockdown of classic mitophagy core genes in neural precursor cells; conditions: 15 μM flunarizine, 3 days; shTRC, shATG5-a/b, shPINK1-a/b, shFUNDC1-a/b
Experimental: The corresponding classic mitophagy core genes (including shTRC, shATG5-a, shATG5-b, shPINK1-a, shPINK1-b, shFUNDC1-a, and shFUNDC1-b) in mito-GFP-labeled neural precursor cells were knocked down. Then, the cells were plated on a glass slide, the surface coverage of neural precursor cells on the glass slide was 80%. […] Thereafter, the cells were detected with a confocal microscope. The specific results are illustrated in FIG. 3B and FIG. 3C.

[3] = system: neural precursor cells labeled with LAMP1-GFP and mito-DsRed; assay: Mitochondria entering lysosomes (LAMP1-GFP / mito-DsRed overlap); conditions: 15 μM flunarizine, 12 hours
Experimental: The neural precursor cells labeled with LAMP1-GFP and mito-DsRed were plated on a glass slide, and the surface coverage of the neural precursor cells on the glass slide was 80%. […] Then, the results were detected with a confocal microscope.

[4] = system: neural precursor cells labeled with LC3-GFP and mito-DsRed; assay: Co-localization of mitochondria with LC3-GFP labeled autophagosomes (confocal microscope); conditions: 15 μM flunarizine, 12 hours
Experimental: The neural precursor cells labeled with LC3-GFP and mito-DsRed were plated on the glass slides, and the surface coverage of the neural precursor cells on the glass slides was 80%. […] Then, the results were detected with a confocal microscope.

[5] = system: Mito-GFP-labeled mouse embryonic fibroblasts (MEF cells); assay: Mitochondrial clearance in MEF cells with mitophagy core genes knocked off; conditions: 15 μM flunarizine, 3 days; WT, ATG5, PARK2, FUNDC1
Experimental: Mito-GFP-labeled mouse embryonic fibroblasts (MEF cells) were plated on a glass slide. The corresponding classic mitophagy core genes (including WT, ATG5, PARK2, and FUNDC1) in the MEF cells were knocked off. The surface coverage of the cells on the glass slide was 80%. […] Then, the cells were detected with a confocal microscope.

[6] = system: Mito-DsRed-labeled neural precursor cells; assay: Mitochondrial efflux (mitochondria, lysosome and cell membrane overlap); conditions: 15 μM flunarizine, 24 hours; Lysotraker DeepRed, FM1-43
Experimental: Mito-DsRed-labeled neural precursor cells were plated on a glass slide, and the surface coverage of the neural precursor cells on the glass slide was 80%. […] The final concentration was 15 μM. The lysosomes were labeled with Lysotraker DeepRed, the cell membranes were labeled with FM1-43, and then the results were detected with a confocal microscope.

SMILES: Fc1ccc(C(c2ccc(F)cc2)N2CCN(C/C=C/c3ccccc3)CC2)cc1 [flunarizine]
- removal of intracellular mitochondria ([1]; 15 μM flunarizine, 3 days of treatment, 80% surface coverage): substantially completely removed
- concentration that can effectively remove the mitochondria in the cells ([1]; after 3 days of treatment, tested 5, 10, 15, 20, 25 μM): above 10 μM
- removal of intracellular mitochondria ([1]; contact time more than 3 days): completely removed
- mitochondrial morphology in neural precursor cells ([1]; final concentration 15 μM): basically not observed
- mitochondrial morphology in neural precursor cells ([1]; final concentration 20 μM): basically not observed
- mitochondrial morphology in neural precursor cells ([1]; final concentration 25 μM): basically not observed
- mitochondrial clearance after knockdown of mitophagy core genes [2]: knockdown of related genes could not inhibit mitochondrial clearance
- overlap of LAMP1 and mito (mitochondria entering lysosomes) [3]: wrapped by lysosomes
- co-localization of mitochondria with LC3-GFP labeled autophagosomes [4]: not co-localized with LC3-GFP labeled autophagosomes
- mitochondrial clearance in MEF cells with mitophagy genes knocked off [5]: knockdown of mitophagy-related genes cannot inhibit mitochondrial clearance
- mitochondrial efflux vesicles on the cell surface [6]: efflux vesicles wrapped around mitochondria were formed
